According to patent publication US12655107B2 (The United States of America, as represented by the …, priority 2018, dated 2026):
Read-outs that look alike come from different tables or passages of the source.

Experiments:
[1] = Pharmacokinetic study in rat; details: SD rats
Experimental: The SD rats were divided into two groups (n=3) and treated by intravenous injection (i.v.) at 1 mg/kg dose and intragastrical administration (i.g.) at 5 mg/kg dose, respectively.
A pharmacokinetic (PK) study in vivo of 50 was performed in Sprague-Dawley (SD) rats. The SD rats were randomly divided into two groups […] and treated by intravenous injection (iv) at 1 mg/kg dose or an intragastrical administration (ig) at 5 mg/kg dose, respectively. Plasma samples were collected postdosing and the concentration of 50 was measured.
Plasma samples (100 μL) were obtained after centrifugation for 10 min at 3000 rpm and stored at −20° C. until used for analysis. The plasma was detected through LC-MS-MS.

[2] = tested on: HCT116 cells; test: Flow cytometry apoptosis assay; format: cell-based, human
Experimental: To evaluate the induction of apoptosis by 50, flow cytometry assays were performed in HCT116 cells.
The stained cells were analyzed by using flow cytometry (BD, FACSCalibur, USA) within I h. The experiments were repeated three times independently.

[3] = tested on: γH2AX foci in HCT116 cells; test: γH2AX detection by immunofluorescence; format: cell-based, human; details: HCT116, 1 μM, 3 h
Experimental: To evaluate the DNA damaging effect of 50 in cancer cells, γH2AX foci were assessed by immunofluorescence microscopy in human […] HCT116 cells. After incubation with the compounds for 3 h, the HCT116 cells were stained with γH2AX antibodies.
HCT116 cells (2×10^4 cells/mL) were grown in culture medium and treated with compounds for 3 h at 37° C. […] Cells were permeabilized with 0.5% Triton X-100 in PBS at 0° C. for 30 min. Dish was blocked with 5% goat serum/PBS at 37° C. for 3 h. […] The dishes were again washed six times with blocking buffer. Digital images were recorded using an LSM710 microscope (Zeiss, Germany) and analyzed with ZEN software.

With CNCCn1c(=O)c2cc(OC)c(OC)cc2c2ccc3cc4c(cc3c21)OCO4 [Compound 50, 2,3-dimethoxy-12-(2-(methylamino)ethyl)-[1,3]dioxolo[4′5′:4,5]benzo[1,2-c]phenanthridin-13(12H)-one] the “AUC0→t” value ([1]; i.g. 5 mg/kg) was 48.3 ± 28 ng·h/mL, the “Cmax” value ([1]; i.g. 5 mg/kg) was 19 ± 9 ng/mL and the “Tmax” value ([1]; i.g. 5 mg/kg) was 2 ± 0 h. The “F (%)” value ([1]; i.g. 5 mg/kg vs i.v. 1 mg/kg) was 20.4%, the “AUC0→t” value ([1]; i.v. 1 mg/kg) was 47.2 ± 1.8 ng·h/mL and the “AUC0→∞” value ([1]; i.v. 1 mg/kg) was 49.8 ± 1.5 ng·h/mL. The “MRTINF” value ([1]; i.v. 1 mg/kg) was 1.46 ± 0.027 h, the “T1/2” value ([1]; i.v. 1 mg/kg) was 1.21 h and the early apoptotic cells ([2]; HCT116, 24 h, 2 μM) was 27.95%. The induction of apoptosis ([2]; HCT116, 24 h, 0.5, 1 and 2 μM) was “clearly induced HCT116 cells apoptosis in a dose-dependent manner”, the γH2AX foci [3] was “effectively induced γH2AX foci” and the “median lethal dose (LD50)” value (i.p., dose to kill half of mice after 7 days) was 192 mg/kg. The mouse survival (mouse, in vivo, ip, 192 mg/kg) was “three mice survived”, the mouse survival (single i.p. dose 122.9 mg/kg, 7 days) was “all mice survived” and the mouse survival (single i.p. dose 153.6 mg/kg, 7 days) was “four mice survived”. For the same compound, the mouse survival (single i.p. dose 240 mg/kg, 7 days) was “two mice survived” and the mouse survival (single i.p. dose 300 mg/kg, 7 days) was “All mice died within 5 days”.
